# In patent US20060141010A1, “Coated preparations that contain at least one hydroformate” (Basf Aktiengesellschaft, priority 2003, published 2006):
# Test system: one-day-old chickens
# Assay: Feeding experiment using coated trisodium hydrogenformate preparations in a standard wheat-soy diet
# Format: in vivo
# Conditions: after 21 days, vs negative control (standard wheat-soy diet)
# Experimental: A feeding experiment was carried out using one-day-old chickens. Trisodium hydrogenformate was coated with 0, 15 and 30% by weight hydrogenated soybean oil. Per dose, 2 repetitions were carried out, and 10 chickens were used in each feeding experiment.
# A standard wheat-soy diet was used as negative control. The coated trisodium hydrogenformate preparations were added to the diet in exchange for cellulose (1% in the negative control).
# Feeding results compared with the negative control [%] after 21 days.
# [1] = 0.4 % by weight trisodium hydrogenformate in diet
# [2] = 0.8 % by weight trisodium hydrogenformate in diet
compound,measurement,setting,value
O=CO.O=C[O-].O=C[O-].O=C[O-].[Na+].[Na+].[Na+] [trisodium hydrogenformate],"FCR (feed conversion rate), feeding results compared with the negative control",[1],+2%
same,"Weight gain, feeding results compared with the negative control",[1],+2%
same,"FCR (feed conversion rate), feeding results compared with the negative control",[2],+5%
same,"Weight gain, feeding results compared with the negative control",[2],+2%
